Reference: US20100323989A1, “PHARMACEUTICAL COMBINATIONS USEFUL FOR TREATING HCV” (Gilead Sciences, Inc., priority 2009, published 2010)
“And” between values parts separate entries of the source, which are not always exact repeats. Equal values may be shown once.

How the values were obtained:
[1] = tested on: HCV genotype 1b replicon cells (Huh-luc); assay: Combination study in Huh-luc replicon cells analysed with MacSynergy II; type: cell-based; conditions: Compound 1 in combination with Compound 2, MacSynergy II
Procedure: (§1) HCV genotype 1b replicon cells (Huh-luc) were obtained from Reblikon (Mainz, Germany). The replicon in these cells is designated I389luc-ubi-neo/NS3-3′/ET and encodes a selectable resistance marker (neomycin phosphotransferase) as well as the firefly luciferase reporter gene. Huh-luc cells were maintained in Dulbecco's Modified Eagle's Medium (DMEM; GIBCO, Carlsbad, Calif.) supplemented with 10% fetal bovine serum (FBS; Hyclone, Logan, Utah) and 0.5 mg/mL of G-418 (GIBCO). Cells were passaged twice a week and maintained at subconfluent levels.
For each individual drug, the EC50 value was selected as the midpoint for the concentration range tested. Cells were incubated for three days and analyzed for luciferase expression as indicated above. For the combination study, two independent experiments were performed in triplicate.
The calculated volumes of surface deviations are expressed in nM2%. Per Prichard and Shipman, combination effects are defined as:
Highly synergistic if volumes >100 nM^2.
Slightly synergistic if volumes are >50 and ≦100 nM^2.
Additive if volumes are >−50 nM^2 and ≦50 nM^2.
Slightly antagonistic if volumes are >−100 nM^2 and ≦−50 nM^2.
Antagonistic if volumes are ≦−100 nM^2.

[2] = tested on: wild-type 1b Con-1 PI-Luc replicon; assay: Transient transfection replicon assay, wild type; type: cell-based, HCV genotype 1b; conditions: Hepatitis C virus
[3] = tested on: 1b Con-1 PI-Luc replicon with NS5B polymerase mutation M423T; type: cell-based, HCV genotype 1b; conditions: ratio of mutant EC50 to wild type EC50, NS5B M423T
[4] = tested on: 1b Con-1 PI-Luc replicon with NS5B polymerase mutation M414T; type: cell-based, HCV genotype 1b; conditions: ratio of mutant EC50 to wild type EC50, NS5B M414T
[5] = tested on: 1b Con-1 PI-Luc replicon with NS5B polymerase mutation Y448H; type: cell-based, HCV genotype 1b; conditions: ratio of mutant EC50 to wild type EC50, NS5B Y448H
[6] = tested on: 1b Con-1 PI-Luc replicon with NS5B polymerase mutations C316Y/C445F/Y452H; type: cell-based, HCV genotype 1b; conditions: ratio of mutant EC50 to wild type EC50, NS5B C316Y/C445F/Y452H
[7] = tested on: 1b PI-luc replicon with NS3 protease mutation V36M; type: cell-based, HCV genotype 1b; conditions: ratio of mutant EC50 to wild type EC50, NS3 V36M
[8] = tested on: 1b PI-luc replicon with NS3 protease mutation T54A; type: cell-based, HCV genotype 1b; conditions: ratio of mutant EC50 to wild type EC50, NS3 T54A
[9] = tested on: 1b PI-luc replicon with NS3 protease mutation R155K; type: cell-based, HCV genotype 1b; conditions: ratio of mutant EC50 to wild type EC50, NS3 R155K
[10] = tested on: 1b PI-luc replicon with NS3 protease mutation A156T; type: cell-based, HCV genotype 1b; conditions: ratio of mutant EC50 to wild type EC50, NS3 A156T
[11] = tested on: 1b PI-luc replicon with NS3 protease mutation D168E; type: cell-based, HCV genotype 1b; conditions: ratio of mutant EC50 to wild type EC50, NS3 D168E
[12] = tested on: 1b PI-luc replicon with NS3 protease mutation D168V; type: cell-based, HCV genotype 1b; conditions: ratio of mutant EC50 to wild type EC50, NS3 D168V
[13] = Pharmacokinetic drug-drug interaction study, single dose with multiple-dose partner, healthy subjects (Example 6); type: in vivo, human; conditions: for Compound 1 AUC0-last, % Geometric Least-Squares Mean Ratio (90% CI) / Compound 1 AUCinf, % Geometric Least-Squares Mean Ratio (90% CI) / Compound 1 Cmax, % Geometric Least-Squares Mean Ratio (90% CI): Compound 1 + Compound 2 / Compound 1 alone; for AUC(0-t) / AUC(0-inf) / Cmax / half-life: human, plasma; for AUC(0-t): Compound 1 AUC0-last; for AUC(0-t) / AUC(0-inf) / Cmax: Mean (% CV); for AUC(0-inf): Compound 1 AUCinf; for Cmax: Compound 1 Cmax; for half-life: Compound 1 T1/2, Median (min, max)
Procedure: In this study, healthy subjects were randomized into one of the following three treatment groups: […] Treatment Group 3 (N=20): […] Serial blood samples for analysis of plasma concentrations of Compound 2 were collected up to 72 hours post-morning dose on Days 1 and 10 to determine systemic drug exposure.

[14] = tested on: HCV 1b-con replicon cells; assay: Long-term (20 days, 6 passages) treatment of HCV replicon cells, HCV RNA by Real-Time RT PCR; type: cell-based, HCV genotype 1b; conditions: from baseline, compounds at 10 times their EC50, mean ± SD
Procedure: as §1
Both compounds were used at concentrations 10 times over their respective EC50 values. In brief, replicon cells (10^6 cells) were plated in a T75 flask in 15 mL of supplemented DMEM without G418. […] At each passage, cells were trypsinized, 10^6 cells were frozen in […] of RLT RNA lysis buffer (QIAGEN), and an additional 10^6 cells were seeded into another T75 flask with fresh medium and inhibitors. At the end of the assay, RNA was extracted from frozen replicon cells saved at the time of passage using QIAGEN RNeasy spin kit and was analyzed in a Real-Time RT PCR assay (Applied Biosystems).

[15] = Multiple-dose pharmacokinetic interaction study in healthy subjects (Example 5); type: in vivo, human
[16] = Group 1, Compound 1 20 mg with Compound 2 150 mg BID vs Compound 1 20 mg alone
[17] = Group 2, Compound 1 40 mg with Compound 2 150 mg BID vs Compound 1 40 mg alone
[18] = 20 mg, Group 1, human, single-dose Compound 1 20 mg alone
[19] = 40 mg, Group 2, human, single-dose Compound 1 40 mg alone
[20] = Group 1, human, single-dose Compound 1 20 mg + multiple-dose Compound 2 150 mg BID
[21] = Group 2, human, single-dose Compound 1 40 mg + multiple-dose Compound 2 150 mg BID
[22] = Compound 1 (40 mg BID) + Compound 2 (75 mg BID) / Compound 1 alone
[23] = coadministration of Compound 2 (75 mg BID) with Compound 1 (40 mg BID) vs Compound 1 alone

## Fc1ccccc1-c1nc2ccn(Cc3ccc(-c4ccc(C(F)(F)F)cc4C(F)(F)F)nn3)cc-2n1 [Compound 1, 5-({6-[2,4-bis(trifluoromethyl)phenyl]pyridazin-3-yl}methyl)-2-(2-fluorophenyl)-5H-imidazo[4,5-c]pyridine]
[1]
  Interaction: Additive (Additive if volumes are >−50 nM^2 and ≦50 nM^2.)
[1]; mean ± SD
  Antagonism Volume: 0.07 ± 0.07 nM^2
  Synergy Volume: 13.5 ± 10.5 nM^2
[2]; Table 3 (NS5B mutation study)
  EC50: 1.5 nM
[2]; Table 4 (NS3 protease mutation study)
  EC50: 0.79 nM
[3]
  Fold Resistance M423T: 0.8 fold
[4]
  Fold Resistance M414T: 0.7 fold
[5]
  Fold Resistance Y448H: 38.0 fold
[6]
  Fold Resistance C316Y/C445F/Y452H: >343 fold
[7]
  Fold Resistance V36M: 1.1 fold
[8]
  Fold Resistance T54A: 1.0 fold
[9]
  Fold Resistance R155K: 0.9 fold
[10]
  Fold Resistance A156T: 0.6 fold
[11]
  Fold Resistance D168E: 1.0 fold
[12]
  Fold Resistance D168V: 1.2 fold
[13]; Group 1 (Compound 1 20 mg)
  Compound 1 AUC0-last, % Geometric Least-Squares Mean Ratio (90% CI): 250.5 (217.8, 288.0) %
  Compound 1 AUCinf, % Geometric Least-Squares Mean Ratio (90% CI): 321.1 (262.8, 392.2) %
  Compound 1 Cmax, % Geometric Least-Squares Mean Ratio (90% CI): 123.1 (111.6, 135.7) %
[13]; [16]
  increase in AUC0-last of Compound 1: 151%
  increase in AUCinf of Compound 1: 221%
  increase in Cmax of Compound 1: 23%
[13]; Group 2 (Compound 1 40 mg)
  Compound 1 AUC0-last, % Geometric Least-Squares Mean Ratio (90% CI): 253.0 (229.3, 279.1) %
  Compound 1 AUCinf, % Geometric Least-Squares Mean Ratio (90% CI): 350.4 (300.2, 409.1) %
  Compound 1 Cmax, % Geometric Least-Squares Mean Ratio (90% CI): 136.8 (122.7, 152.6) %
[13]; [17]
  increase in AUC0-last of Compound 1: 153%
  increase in AUCinf of Compound 1: 250%
  increase in Cmax of Compound 1: 37%
[13]; both groups (20 and 40 mg), with Compound 2 150 mg BID vs Compound 1 alone
  increase in median Compound 1 terminal phase elimination half-life: approximately 2 fold
[13]; [18]
  AUC(0-t): 12800 ng·h/mL
  AUC(0-inf): 13400 ng·h/mL
  Cmax: 940 ng/mL
  half-life: 16.6 h
[13]; [19]
  AUC(0-t): 34100 ng·h/mL
  AUC(0-inf): 35500 ng·h/mL
  Cmax: 1980 ng/mL
  half-life: 19.2 h
[13]; [20]
  AUC(0-t): 32600 ng·h/mL
  AUC(0-inf): 49500 ng·h/mL
  Cmax: 1140 ng/mL
  half-life: 35.8 h
[13]; [21]
  AUC(0-t): 87500 ng·h/mL
  AUC(0-inf): 137000 ng·h/mL
  Cmax: 2730 ng/mL
  half-life: 39.3 h
[14]
  HCV RNA Change in Log10, Passage 5: −2.1 ± 0.5 Log10
  HCV RNA Change in Log10, Passage 6: −2.3 Log10 and −2.4 ± 0.2 Log10
[15]; [22]
  Compound 1 AUCtau, % Geometric Least Square Mean Ratio (90% CI): 206.4 (185.1, 230.0) %
  Compound 1 Cmax, % Geometric Least Square Mean Ratio (90% CI): 185.2 (167.3, 205.0) %
  Compound 1 Ctau, % Geometric Least Square Mean Ratio (90% CI): 251.2 (219.5, 287.5) %
[15]; [23]
  increase in AUCtau of Compound 1: 106%
  increase in Cmax of Compound 1: 85%
  increase in Ctau of Compound 1: 151%
[15]; human, plasma, po, 40 mg
  AUC: 43400 ng·h/mL
  Cmax: 5040 ng/mL
  concentration at 12 h: 2570 ng/mL
